Reference: US8592174B2, “Peptidase substrates” (bioMérieux, S.A., priority 2009, dated 2013)

Assays:
[1] = test system: Enterococcus faecalis NCTC 775; experiment: Peptidase detection on Columbia medium (Example 2); assay type: cell-based; set-up: key to Growth: NG: No growth; 0.5: weak growth; 1: moderate growth; 2: good growth; key to Fluo. / Color / Color post-acid.: —: no color; settings: 40 mg in 400 ml Columbia, 24 h 37° C.
[2] = test system: Yersinia enterocolitica NCTC 11 176; experiment: Peptidase detection on Columbia medium (Example 2); assay type: cell-based; set-up: key to Growth: NG: No growth; 0.5: weak growth; 1: moderate growth; 2: good growth; settings: 40 mg in 400 ml Columbia, 24 h 37° C.
[3] = test system: Salmonella typhimurium NCTC 74; experiment: Peptidase detection on Columbia medium (Example 2); assay type: cell-based; set-up: key to Growth: NG: No growth; 0.5: weak growth; 1: moderate growth; 2: good growth; settings: 40 mg in 400 ml Columbia, 24 h 37° C.
[4] = test system: Candida albicans ATCC 90 028; experiment: Peptidase detection on Columbia medium (Example 2); assay type: cell-based; set-up: key to Growth: NG: No growth; 0.5: weak growth; 1: moderate growth; 2: good growth; key to Fluo. / Color / Color post-acid.: —: no color; settings: 40 mg in 400 ml Columbia, 24 h 37° C.
[5] = test system: Providencia rettgeri NCTC 7 475; experiment: Peptidase detection on Columbia medium (Example 2); assay type: cell-based; set-up: key to Growth: NG: No growth; 0.5: weak growth; 1: moderate growth; 2: good growth; settings: 40 mg in 400 ml Columbia, 24 h 37° C.
[6] = test system: Gram-negative bacteria, Gram-positive bacteria, yeasts; settings: conclusion of Example 2
Description: 40 mg of each of the substrates were dissolved in 4 ml of dimethyl sulfoxide (80 mg for Asn-ASQM^+) and added to 400 ml of previously autoclaved Columbia medium. The 6 media were distributed into Petri dishes 90 mm in diameter, in a proportion of 20 ml per dish.
Seventeen strains of microorganisms stemming from collections and belonging to various species of bacteria and yeasts are inoculated in spots of approximately 10 000 colony-forming units.
The media are incubated for 24 hours at 37° C., and then the colonies formed are examined visually, with or without the addition of acid and under a UV lamp at 365 nm.

[7] = test system: Bacillus subtilis NCTC 9 372; experiment: Peptidase detection on Columbia medium (Example 2); assay type: cell-based; set-up: key to Growth: NG: No growth; 0.5: weak growth; 1: moderate growth; 2: good growth; key to Fluo. / Color / Color post-acid.: —: no color; settings: 40 mg in 400 ml Columbia, 24 h 37° C.
[8] = test system: Enterococcus faecium NCTC 7 171; experiment: Peptidase detection on Columbia medium (Example 2); assay type: cell-based; set-up: key to Growth: NG: No growth; 0.5: weak growth; 1: moderate growth; 2: good growth; key to Fluo. / Color / Color post-acid.: —: no color; settings: 40 mg in 400 ml Columbia, 24 h 37° C.
[9] = test system: Staphylococcus aureus NCTC 6 571; experiment: Peptidase detection on Columbia medium (Example 2); assay type: cell-based; set-up: key to Growth: NG: No growth; 0.5: weak growth; 1: moderate growth; 2: good growth; key to Fluo. / Color / Color post-acid.: —: no color; settings: 40 mg in 400 ml Columbia, 24 h 37° C.
[10] = test system: Serratia marcescens NCTC 10 211; experiment: Peptidase detection on Columbia medium (Example 2); assay type: cell-based; set-up: key to Growth: NG: No growth; 0.5: weak growth; 1: moderate growth; 2: good growth; settings: 40 mg in 400 ml Columbia, 24 h 37° C.
[11] = test system: Staphylococcus epidermidis NCTC 11 047; experiment: Peptidase detection on Columbia medium (Example 2); assay type: cell-based; set-up: key to Growth: NG: No growth; 0.5: weak growth; 1: moderate growth; 2: good growth; key to Fluo. / Color / Color post-acid.: —: no color; settings: 40 mg in 400 ml Columbia, 24 h 37° C.
[12] = test system: Enterobacter cloacae NCTC 11 936; experiment: Peptidase detection on Columbia medium (Example 2); assay type: cell-based; set-up: key to Growth: NG: No growth; 0.5: weak growth; 1: moderate growth; 2: good growth; settings: 40 mg in 400 ml Columbia, 24 h 37° C.
[13] = test system: Streptococcus pyogenes NCTC 8 306; experiment: Peptidase detection on Columbia medium (Example 2); assay type: cell-based; set-up: key to Growth: NG: No growth; 0.5: weak growth; 1: moderate growth; 2: good growth; key to Fluo. / Color / Color post-acid.: —: no color; settings: 40 mg in 400 ml Columbia, 24 h 37° C.
[14] = test system: Staphylococcus aureus NCTC 11 939; experiment: Peptidase detection on Columbia medium (Example 2); assay type: cell-based; set-up: key to Growth: NG: No growth; 0.5: weak growth; 1: moderate growth; 2: good growth; key to Fluo. / Color / Color post-acid.: —: no color; settings: 40 mg in 400 ml Columbia, 24 h 37° C.
[15] = test system: Escherichia coli NCTC 10 418; experiment: Peptidase detection on Columbia medium (Example 2); assay type: cell-based; set-up: key to Growth: NG: No growth; 0.5: weak growth; 1: moderate growth; 2: good growth; settings: 40 mg in 400 ml Columbia, 24 h 37° C.
[16] = test system: Listeria monocytogenes NCTC 11 994; experiment: Peptidase detection on Columbia medium (Example 2); assay type: cell-based; set-up: key to Growth: NG: No growth; 0.5: weak growth; 1: moderate growth; 2: good growth; key to Fluo. / Color / Color post-acid.: —: no color; settings: 40 mg in 400 ml Columbia, 24 h 37° C.
[17] = test system: Pseudomonas aeruginosa NCTC 10 662; experiment: Peptidase detection on Columbia medium (Example 2); assay type: cell-based; set-up: key to Growth: NG: No growth; 0.5: weak growth; 1: moderate growth; 2: good growth; settings: 40 mg in 400 ml Columbia, 24 h 37° C.
[18] = test system: Candida glabrata NCPF 3 943; experiment: Peptidase detection on Columbia medium (Example 2); assay type: cell-based; set-up: key to Growth: NG: No growth; 0.5: weak growth; 1: moderate growth; 2: good growth; key to Fluo. / Color / Color post-acid.: —: no color; settings: 40 mg in 400 ml Columbia, 24 h 37° C.

In the case of `NCCC(=O)Nc1ccc(C=Cc2ccc3ccccc3n2)cc1` [β-Ala-ASQ, β-alanyl-2-(4′-amidostyryl)quinoline], the Color [1] is reported as “—”, the Growth [1] is reported as “NG” and the Fluo. ([1]; UV lamp 365 nm) is reported as “—”. For the same molecule, the Color post-acid. ([1]; addition of acid) was “—”, the Growth [2] was 2 and the Color post-acid. ([2]; addition of acid) was “Pale yellow”. The Growth [3] was 2, the Color post-acid. ([3]; addition of acid) was “Pale yellow” and the Color [4] was “—”. For the same molecule, the Growth [4] was “NG”, the Fluo. ([4]; UV lamp 365 nm) was “—” and the Color post-acid. ([4]; addition of acid) was “—”. The Growth [5] was 2, the Color post-acid. ([5]; addition of acid) was “Pale yellow” and the “toxicity / growth of microorganisms” value [6] was “toxic with respect to certain groups”. The Color [7] was “—”, the Growth [7] was “NG” and the Fluo. ([7]; UV lamp 365 nm) was “—”. For the same molecule, the Color post-acid. ([7]; addition of acid) was “—”, the Color [8] was “—” and the Growth [8] was “NG”. For the same molecule, the Fluo. ([8]; UV lamp 365 nm) was “—”, the Color post-acid. ([8]; addition of acid) was “—” and the Color [9] was “—”. For the same molecule, the Growth [9] was “NG”, the Fluo. ([9]; UV lamp 365 nm) was “—” and the Color post-acid. ([9]; addition of acid) was “—”. For the same molecule, the Growth [10] was 2, the Fluo. ([10]; UV lamp 365 nm) was “Green” and the Color post-acid. ([10]; addition of acid) was “Orange”. For the same molecule, the Color [11] was “—”, the Growth [11] was “NG” and the Fluo. ([11]; UV lamp 365 nm) was “—”. For the same molecule, the Color post-acid. ([11]; addition of acid) was “—”, the Growth [12] was 2 and the Color post-acid. ([12]; addition of acid) was “Pale yellow”. The Color [13] was “—”, the Growth [13] was “NG” and the Fluo. ([13]; UV lamp 365 nm) was “—”. For the same molecule, the Color post-acid. ([13]; addition of acid) was “—”, the Color [14] was “—” and the Growth [14] was “NG”. For the same molecule, the Fluo. ([14]; UV lamp 365 nm) was “—”, the Color post-acid. ([14]; addition of acid) was “—” and the Growth [15] was 2. For the same molecule, the Color post-acid. ([15]; addition of acid) was “Pale yellow”, the Color [16] was “—” and the Growth [16] was “NG”. For the same molecule, the Fluo. ([16]; UV lamp 365 nm) was “—”, the Color post-acid. ([16]; addition of acid) was “—” and the Growth [17] was 2. The Fluo. ([17]; UV lamp 365 nm) was “Green”, the Color post-acid. ([17]; addition of acid) was “Orange” and the Color [18] was “—”. For the same molecule, the Growth [18] was “NG”, the Fluo. ([18]; UV lamp 365 nm) was “—” and the Color post-acid. ([18]; addition of acid) was “—”.
